Experimental data from ChEMBL document CHEMBL1201862, “PubChem BioAssay data set” (2004).
The source made the active and inactive calls.

What was measured:
[1] = test system: HEK293; assay: NOD1 signaling inhibitors, primary screen, cell-based, luminescence, uHTS (AID 1578); assay type: functional; settings: Homo sapiens
[2] = test system: HEK293; assay: cells; assay type: functional, cell-based; settings: Homo sapiens
[3] = test system: HEK293; assay: cells; assay type: functional, cell-based; settings: Homo sapiens; remark: listed apart in the source
[4] = test system: HEK293; assay: NOD2 signaling inhibitors in MDP-stimulated cells, cell-based, uHTS, luminescence (AID 2001); assay type: functional; settings: Homo sapiens
[5] = Luminescence Cell-Based Dose Retest to Confirm Inhibitors of Cancer Stem Cells. [Related pubchem assays (depositor defined):AID2717, AID2721]; assay type: functional; settings: Homo sapiens
[6] = target: T1, Heat shock factor protein 1 (Mus musculus, UniProt P38532); assay: HSF1 potentiators in luciferase reporter cells, confirmation, cell-based, NIH3T3, luminescence, dose retest (AID 435004); assay type: functional;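 note: stress induced by proteasome inhibitor MG132 added 30 min after compound; luciferase reporter driven by HSF1 response element in NIH3T3 cells; actives raise luminescence as potentiators of the MG132 stress response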
T1 sequence (P38532 whole entry): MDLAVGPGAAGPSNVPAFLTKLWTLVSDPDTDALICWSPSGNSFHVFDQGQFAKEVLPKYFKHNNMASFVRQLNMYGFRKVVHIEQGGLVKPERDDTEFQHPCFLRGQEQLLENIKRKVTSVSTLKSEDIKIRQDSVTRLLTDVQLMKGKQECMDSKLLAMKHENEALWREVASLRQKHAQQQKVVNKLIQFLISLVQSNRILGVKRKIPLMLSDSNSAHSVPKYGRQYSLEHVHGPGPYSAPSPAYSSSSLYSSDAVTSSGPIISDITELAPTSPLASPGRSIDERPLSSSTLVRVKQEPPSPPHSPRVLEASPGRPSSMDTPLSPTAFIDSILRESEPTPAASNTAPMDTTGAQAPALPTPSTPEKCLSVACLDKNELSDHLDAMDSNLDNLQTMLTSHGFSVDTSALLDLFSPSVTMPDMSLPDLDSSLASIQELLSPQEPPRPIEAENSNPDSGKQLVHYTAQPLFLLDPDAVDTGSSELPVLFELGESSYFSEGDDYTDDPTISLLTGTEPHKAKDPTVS

[7] = test system: Vero; assay: cells; assay type: functional, cell-based; settings: Chlorocebus sabaeus
[8] = test system: Vero; assay: cells; assay type: functional; settings: Chlorocebus sabaeus
[9] = test system: HeLa; assay: HeLa cell cytotoxicity, dose response, cytotoxicity control for MITF activator project, CellTiter-Glo luminescence, cherry-pick samples (AID 540259); assay type: functional, cell-based; settings: Homo sapiens
[10] = target: T2, Exodeoxyribonuclease V (Escherichia coli (strain K12), UniProt P04993+P07648+P08394); assay: E. coli RecBCD inhibitors, dose response, counter-screen for AddAB inhibitor project, absorbance, V66 E. coli, mutant T4 phage (AID 492957); assay type: functional, cell-based, Escherichia coli str. K-12 substr. MG1655
T2 sequence (P04993 whole entry): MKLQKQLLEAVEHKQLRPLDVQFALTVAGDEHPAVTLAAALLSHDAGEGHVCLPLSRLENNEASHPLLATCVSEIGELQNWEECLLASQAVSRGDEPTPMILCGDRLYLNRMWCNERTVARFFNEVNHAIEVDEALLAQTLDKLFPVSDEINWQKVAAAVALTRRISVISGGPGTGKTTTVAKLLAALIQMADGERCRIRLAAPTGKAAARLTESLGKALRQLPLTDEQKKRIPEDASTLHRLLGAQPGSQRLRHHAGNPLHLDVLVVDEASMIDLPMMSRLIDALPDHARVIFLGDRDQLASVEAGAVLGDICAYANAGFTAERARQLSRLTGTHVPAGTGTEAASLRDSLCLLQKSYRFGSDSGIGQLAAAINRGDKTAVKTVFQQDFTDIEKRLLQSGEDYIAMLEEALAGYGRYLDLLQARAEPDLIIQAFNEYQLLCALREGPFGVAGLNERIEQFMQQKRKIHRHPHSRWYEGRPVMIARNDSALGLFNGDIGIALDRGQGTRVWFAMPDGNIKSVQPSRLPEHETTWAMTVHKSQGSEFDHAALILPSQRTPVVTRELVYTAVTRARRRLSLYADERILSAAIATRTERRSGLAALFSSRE
T2 sequence (P07648 whole entry): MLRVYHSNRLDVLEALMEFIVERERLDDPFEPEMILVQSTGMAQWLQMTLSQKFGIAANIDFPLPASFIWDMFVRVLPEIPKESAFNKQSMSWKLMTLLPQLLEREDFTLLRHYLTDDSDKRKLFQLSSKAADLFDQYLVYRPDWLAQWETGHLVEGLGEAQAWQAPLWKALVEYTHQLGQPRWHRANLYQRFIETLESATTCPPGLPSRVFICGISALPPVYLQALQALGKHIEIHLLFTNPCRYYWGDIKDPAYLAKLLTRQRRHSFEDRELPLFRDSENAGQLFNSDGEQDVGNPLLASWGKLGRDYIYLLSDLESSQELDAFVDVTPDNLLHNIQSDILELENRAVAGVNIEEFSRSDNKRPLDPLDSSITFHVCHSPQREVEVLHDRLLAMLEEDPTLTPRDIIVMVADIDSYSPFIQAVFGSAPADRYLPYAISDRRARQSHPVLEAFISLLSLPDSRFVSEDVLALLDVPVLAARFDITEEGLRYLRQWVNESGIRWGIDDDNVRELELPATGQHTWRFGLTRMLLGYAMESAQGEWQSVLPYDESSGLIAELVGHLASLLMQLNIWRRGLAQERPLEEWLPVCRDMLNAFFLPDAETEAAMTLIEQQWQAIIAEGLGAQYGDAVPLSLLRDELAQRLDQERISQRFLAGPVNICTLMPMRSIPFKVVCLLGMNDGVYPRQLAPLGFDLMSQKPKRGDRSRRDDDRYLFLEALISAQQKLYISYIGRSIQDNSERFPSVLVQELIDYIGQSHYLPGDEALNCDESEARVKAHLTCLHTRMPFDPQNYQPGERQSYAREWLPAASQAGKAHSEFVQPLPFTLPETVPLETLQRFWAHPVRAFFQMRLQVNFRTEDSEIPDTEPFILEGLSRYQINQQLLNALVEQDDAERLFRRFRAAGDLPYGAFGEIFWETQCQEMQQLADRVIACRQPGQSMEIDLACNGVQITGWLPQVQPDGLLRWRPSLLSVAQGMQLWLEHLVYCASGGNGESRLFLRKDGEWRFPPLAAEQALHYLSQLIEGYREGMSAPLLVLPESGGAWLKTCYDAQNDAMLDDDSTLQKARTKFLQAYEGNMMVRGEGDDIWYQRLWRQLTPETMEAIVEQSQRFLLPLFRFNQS
T2 sequence (P08394 whole entry): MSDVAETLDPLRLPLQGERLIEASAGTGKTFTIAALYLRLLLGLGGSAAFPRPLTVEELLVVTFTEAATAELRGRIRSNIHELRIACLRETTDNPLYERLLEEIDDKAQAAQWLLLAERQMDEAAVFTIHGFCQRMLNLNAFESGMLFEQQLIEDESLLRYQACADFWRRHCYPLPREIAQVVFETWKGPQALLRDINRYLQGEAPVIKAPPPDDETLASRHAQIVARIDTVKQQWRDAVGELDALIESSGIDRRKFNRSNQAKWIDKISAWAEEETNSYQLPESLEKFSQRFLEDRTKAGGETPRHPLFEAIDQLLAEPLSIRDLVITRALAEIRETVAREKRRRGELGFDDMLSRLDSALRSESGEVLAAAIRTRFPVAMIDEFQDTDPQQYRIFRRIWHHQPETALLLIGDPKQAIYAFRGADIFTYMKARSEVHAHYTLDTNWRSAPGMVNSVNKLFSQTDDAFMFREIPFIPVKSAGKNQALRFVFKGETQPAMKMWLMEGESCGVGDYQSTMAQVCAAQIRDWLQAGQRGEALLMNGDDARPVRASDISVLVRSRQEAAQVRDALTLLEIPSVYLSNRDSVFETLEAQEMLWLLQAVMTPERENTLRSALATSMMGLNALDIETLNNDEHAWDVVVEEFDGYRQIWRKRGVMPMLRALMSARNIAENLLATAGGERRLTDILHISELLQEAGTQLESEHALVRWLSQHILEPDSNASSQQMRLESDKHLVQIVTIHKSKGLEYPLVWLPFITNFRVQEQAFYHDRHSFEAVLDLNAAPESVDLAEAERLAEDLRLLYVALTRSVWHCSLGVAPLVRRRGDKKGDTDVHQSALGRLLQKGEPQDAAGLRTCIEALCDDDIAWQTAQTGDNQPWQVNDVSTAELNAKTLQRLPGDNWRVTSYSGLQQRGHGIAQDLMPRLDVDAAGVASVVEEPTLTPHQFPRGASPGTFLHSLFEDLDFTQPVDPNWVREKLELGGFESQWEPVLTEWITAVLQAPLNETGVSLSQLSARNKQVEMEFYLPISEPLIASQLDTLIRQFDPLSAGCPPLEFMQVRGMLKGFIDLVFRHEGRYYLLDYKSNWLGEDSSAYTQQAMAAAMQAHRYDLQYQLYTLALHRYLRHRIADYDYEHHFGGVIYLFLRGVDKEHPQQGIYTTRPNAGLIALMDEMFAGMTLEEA

[11] = Counterscreen for AddAB inhibitors: absorbance-based bacterial cell-based high throughput dose response assay for inhibitors of bacterial viability. [Related pubchem assays (depositor defined):AID435030, AID449728, AID449731, AID488942, AID488955, AID488956]; assay type: functional

Structure (SMILES)	AC50 [5]	IC50 [7]	CC50 [8]	further results
C=C(C(=O)c1ccccc1)C(CC(=O)c1ccccc1)c1ccccc1 (stereo unspecified)	2.07 µM (active)	21.4 µM (active)	21 µM (active)	EC50 [1]: 8.67 µM (active); IC50 [2]: 1.42 µM (active); IC50 [3]: > 20 µM (inactive); IC50 [4]: 4.04 µM (active); EC50 [6]: 7.91 µM (active)
COc1ccc(-c2nn(-c3ccccc3)cc2C(=O)NC(=S)NNC(=O)c2ccncc2)cc1	–	16.6 µM (active)	16.4 µM (active)	–
CC1(C)CN=c2s/c(=C\c3ccc(Cl)cc3)c(=O)n2C1	–	–	–	AC50 [9]: 277 µM (active)
C[C@]12CC[C@H](O)C[C@H]1CC[C@@H]1[C@@H]2CC[C@]2(C)[C@@H](C3=CC(=O)OC3)[C@@H](O)C[C@]12O [GITOXIGENIN]	2.58 µM (active)	> 12.5 µM (active)	6.88 µM (active)	–
O=C1CCC(=O)N(O)CCCCCNC(=O)CCC(=O)N(O)CCCCCNC(=O)CCC(=O)N(O)CCCCCN1 [NOCARDAMINE]	–	–	–	IC50 [10]: > 119 µM (inactive); IC50 [11]: > 119 µM (inactive)
